Patent US7411002B2, “Polycationic sulfonamides and use thereof” (priority 2006, dated 2008)

Assays:
[1] = Rapid-throughput BODIPY-TR cadaverine (BC) fluorescence displacement assay for binding affinity to LPS; conditions: half-maximal effective displacement of BODIPY-TR cadaverine probe from LPS; 50 mM Tris buffer, pH 7.4; read-out: Binding affinity (BC displacement) ED50 value
Experimental: Rapid-throughput Fluorescence Displacement Assay for quantifying binding affinities to LPS. […] Polymyxin B (PMB), a peptide antibiotic known to bind and neutralize LPS^65 serves as the positive control and reference compound for every plate, enabling the quantitative assessment of repeatability and reproducibility (CV and Z′ factors) for the assay. Automated liquid handling is performed on a Precision 2000 automated microplate pipetting system, programmed using the Precision Power software, Bio-Tek Instruments Inc., VT, USA. Results are reported as half-maximal effective displacement of probe (ED50) (Tables A-F). In all experiments, Polymyxin B (PMB), a decapeptide antibiotic, known to bind and neutralize LPS,^66-69 is used as a reference compound.

[2] = tested on: LPS-induced NF-κB induction in human embryonic kidney 293 cells cotransfected with TLR4, CD14 and MD2; test: Inhibition of LPS induction of NF-κB (seAP reporter) in HEK 293 cells cotransfected with TLR4, CD14 and MD2; format: cell-based; conditions: Homo sapiens, HEK293; inhibition of LPS-induced NF-κB induction, HEK 293 TLR4/CD14/MD2 reporter cells; read-out: NFκβ inhibition IC50 value
From the text: Assessment of Inhibition of Cytokine Induction (NF-κB): The inhibition of induction of NF-κB (a key transcripitional activator of the innate immune system, leading to uncontrolled cytokine release^72,73 which ultimately leads to multiple organ failure and the shock syndrome) is quantified using human embryonic kidney 293 cells cotransfected with TLR4 (LPS receptor), CD14 and MD2 (co-receptors), available from InvivoGen, Inc. (HEK-Bluetm, San Diego, Calif.), as per protocols provided by the vendor. Stable expression of secreted alkaline phosphatase (seAP) under control of NF-κB/AP-1 promoters is inducible by LPS, and extracellulare seAP in the supernatant is proportional to NF-κB induction. seAP is assayed spectrophotometrically using an alkaline phosphatase-specific chromogen at 620 nm using a rapid-throughput, automated protocol employing a Bio-Tek P2000 liquid handler. Results showing the ability of polycationic sulfonamide compounds to inhibit the induction of NF-κB by LPS are shown in Tables A-F.

[3] = tested on: LPS-induced lethality in CF-1 mice; test: Mouse lethality assay (D-galactosamine-sensitized mice, supralethal LPS challenge); format: in vivo; conditions: FIG. 9; for mice protected from LPS lethality: 200 μg/mouse compound i.p., supralethal 200 ng LPS challenge, lethality at 24 h
From the text: Compound MQTS 2358 represents spermine-sulfonamide Series A (SPM). Compound MQTS 2383 represents homologated spermine-sulfonamide Series B (HOMO-SPM). Compound MQTS 2389 represents branched homologated spermine-sulfonamide Series D (BRANCHED-HOMO-SPM). Also included in FIG. 9 are positive control compounds MQTS 3938 and MQTS 3942 (L-Lys(C18-alkyl)-spermine and D-Lys(C18-alkyl)-spermine, respectively) previously reported.^60 As shown in this figure, i.p. dosing with these compounds affords significant protection from super-lethal challenges with LPS in this model. Dosages of 200 μg/mouse) protected 5 out of 5 mice with all compounds except MQT 2389 which appears to have toxic effects above 50 μg/mouse dosages. Furthermore, treatment with lower dosages of these compounds also affords significant protection from the toxic effects of LPS.
Mouse lethality experiments: Female, outbred, 9- to 11-week-old CF-1 mice (Charles River, Wilmington, Mass.) weighing 22-28 g are used as described elsewhere.^71 Upon arrival, the mice are allowed to acclimatize for a week prior to experimentation, housed 5 per cage in a controlled environment at the AALAC-accredited University of Kansas Animal Care Facility, and allowed access to mouse chow and water ad libitum. The animals are sensitized to the lethal effects of LPS by D-galactosamine.^74-76 The lethal dose causing 100% mortality (LD100) dose of the batch of LPS used (E. coli 0111:B4 procured from Sigma) is first determined by administering D-galactosamine (800 mg/kg) and LPS (0, 10, 20, 50, 100, 200 ng/mouse) as a single injection intraperitoneally (i.p.) in freshly prepared saline to batches of five animals in a volume of 0.2 ml. […] In experiments designed to test dose-response effects of the polycationic sulfonamides in affording protection against LPS-induced lethality, mice received graded doses of compound diluted in saline, i.p., in one flank, immediately before a supralethal (200 ng) LPS challenge, which is administered as a separate i.p. injection into the other flank. In experiments in which the temporal window of protection is to be examined, a fixed dose of 200 μg/mouse of compound is administered at various times, before, or after supralethal (200 ng/mouse) LPS challenge. Lethality is determined at 24 h post LPS challenge.

[4] = tested on: LPS-induced nitric oxide production in murine macrophage J774A.1 cells; test: NO inhibition (Griess nitrite assay) in LPS-stimulated murine macrophage J774A.1 cells; format: cell-based; conditions: Mus musculus, J774.A1, 10 ng/ml LPS, 16 h
Experimental: Assessment of neutralization of LPS toxicity: NO inhibition activity. Nitric oxide production is measured as total nitrite in murine macrophage J774A.1 cells using the Griess assay^70 as described previously.^71 J774A.1 cells are plated at ˜10^5/ml in a volume of 40 μl/well, in 384-well, flat-bottomed, cell culture treated microtiter plates and subsequently stimulated with 10 ng/ml lipopolysaccharide (LPS). Concurrent to LPS stimulation, serially diluted concentrations of test compounds are added to the cell medium and left to incubate for 16 h. Polymyxin B is used as reference compound in each plate. Positive-(LPS stimulation only) and negative-controls (J774A.1 medium only) are included in each experiment. Nitrite concentrations are measured by adding 40 μl of supernatant to equal volumes of Griess reagents (50 μl/well; 0.1% NED solution in ddH2O and 1% sulfanilamide, 5% phosphoric acid solution in ddH2O) and incubating for 15 minutes at room temperature in the dark. Absorbance at 535 nm is measured using a Molecular Devices Spectramax M2 multifunction plate reader (Sunnyvale, Calif.). Nitrite concentrations are interpolated from standard curves obtained from serially diluted sodium nitrite standards. IC50 values are determined for compounds that neutralize LPS inhibit NO production in a dose-dependent manner (Tables A-F). Results in this assay parallel those in the binding assay.

Row | Compound | EC50 [1] | IC50 [2] | mice protected from LPS lethality [3] | IC50 [4] | dosage above which toxic effects appear ([3]; i.p. dosing in mouse lethality assay)
1 | CCCCCCCCCCCCCCCCS(=O)(=O)NCCCNCCCCNCCCN [MQTS 2358] | 3870 nM | 280 nM | 5 out of 5 | 450 nM | 
2 | CCCCCCCCCCCCCCCCS(=O)(=O)NCCCNCCCNCCCCNCCCN [MQTS 2383] | 4710 nM | 200 nM | 5 out of 5 | 120 nM | 
3 | CCCCCCCCS(=O)(=O)NCCCN(CCCNCCCNCCCCNCCCN)CCCNS(=O)(=O)CCCCCCCC [MQTS 2389, N^1-Bis[N-octanylsulfonyl-3-aminopropyl]-1,18-diamino-5,9,14-triazaoctadecane] | 2620 nM | 300 nM |  | 320 nM | above 50 μg/mouse
4 | D-Lys(C18-alkyl)-spermine [MQTS 3942, reference compound] |  |  | 5 out of 5 |  | 
5 | L-Lys(C18-alkyl)-spermine [MQTS 3938, reference compound] |  |  | 5 out of 5 |  | 
